Assay results as given in ChEMBL document CHEMBL1201862, “PubChem BioAssay data set” (2004).
Active and inactive are the calls of the source.

Experiments:
[1] = molecular target: T1, Short transient receptor potential channel 4 (Mus musculus, UniProt Q9QUQ5); assay: block of DAMGO-driven TRPC4 calcium entry – cell-based, HEK293 TRPC4/mu-opioid, Fluo-4 calcium, dose response (AID 434942); format: functional;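 also: potency of inhibitors blocking the TRPC4 calcium response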
T1 sequence (Q9QUQ5 whole entry): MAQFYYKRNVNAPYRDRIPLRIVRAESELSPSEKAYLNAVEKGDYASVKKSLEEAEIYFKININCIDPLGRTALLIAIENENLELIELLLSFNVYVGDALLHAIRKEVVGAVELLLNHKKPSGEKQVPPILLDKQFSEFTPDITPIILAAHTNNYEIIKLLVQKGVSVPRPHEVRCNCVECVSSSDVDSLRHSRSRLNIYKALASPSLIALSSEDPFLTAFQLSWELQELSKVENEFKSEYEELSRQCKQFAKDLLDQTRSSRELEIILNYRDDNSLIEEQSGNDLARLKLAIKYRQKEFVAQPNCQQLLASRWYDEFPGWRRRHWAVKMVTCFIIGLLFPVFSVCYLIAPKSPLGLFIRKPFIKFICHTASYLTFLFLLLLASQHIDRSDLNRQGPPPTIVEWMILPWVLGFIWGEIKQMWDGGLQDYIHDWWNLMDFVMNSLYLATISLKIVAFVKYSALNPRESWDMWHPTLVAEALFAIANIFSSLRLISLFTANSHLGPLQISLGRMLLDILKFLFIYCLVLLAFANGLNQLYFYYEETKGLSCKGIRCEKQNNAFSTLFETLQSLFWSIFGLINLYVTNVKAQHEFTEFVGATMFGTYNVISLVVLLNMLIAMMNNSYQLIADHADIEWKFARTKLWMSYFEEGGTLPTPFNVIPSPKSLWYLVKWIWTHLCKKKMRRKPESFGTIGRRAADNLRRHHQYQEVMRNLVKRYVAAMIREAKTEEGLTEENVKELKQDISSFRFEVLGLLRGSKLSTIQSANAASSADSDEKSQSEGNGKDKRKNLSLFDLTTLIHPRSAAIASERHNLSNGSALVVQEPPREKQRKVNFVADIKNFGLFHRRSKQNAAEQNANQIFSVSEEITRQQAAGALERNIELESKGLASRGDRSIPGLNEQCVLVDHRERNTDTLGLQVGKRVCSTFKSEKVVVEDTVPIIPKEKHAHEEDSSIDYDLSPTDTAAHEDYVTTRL

[2] = molecular target: T1, Short transient receptor potential channel 4; assay: calcium entry via TRPC4 opening agents – cell-based, HEK293 TRPC4/mu-opioid, Fluo-4 calcium, dose response (AID 434937); format: functional
[3] = molecular target: T2, Protein RecA (Mycobacterium tuberculosis, UniProt P9WHJ3); assay: Fluorescence Cell-Free Homogeneous Dose Retest to Identify Inhibitors of RecA-Intein Splicing Activity. [Related pubchem assays (depositor defined):AID2097, AID2223, AID489010, AID492950]; format: functional
T2 sequence (P9WHJ3 whole entry): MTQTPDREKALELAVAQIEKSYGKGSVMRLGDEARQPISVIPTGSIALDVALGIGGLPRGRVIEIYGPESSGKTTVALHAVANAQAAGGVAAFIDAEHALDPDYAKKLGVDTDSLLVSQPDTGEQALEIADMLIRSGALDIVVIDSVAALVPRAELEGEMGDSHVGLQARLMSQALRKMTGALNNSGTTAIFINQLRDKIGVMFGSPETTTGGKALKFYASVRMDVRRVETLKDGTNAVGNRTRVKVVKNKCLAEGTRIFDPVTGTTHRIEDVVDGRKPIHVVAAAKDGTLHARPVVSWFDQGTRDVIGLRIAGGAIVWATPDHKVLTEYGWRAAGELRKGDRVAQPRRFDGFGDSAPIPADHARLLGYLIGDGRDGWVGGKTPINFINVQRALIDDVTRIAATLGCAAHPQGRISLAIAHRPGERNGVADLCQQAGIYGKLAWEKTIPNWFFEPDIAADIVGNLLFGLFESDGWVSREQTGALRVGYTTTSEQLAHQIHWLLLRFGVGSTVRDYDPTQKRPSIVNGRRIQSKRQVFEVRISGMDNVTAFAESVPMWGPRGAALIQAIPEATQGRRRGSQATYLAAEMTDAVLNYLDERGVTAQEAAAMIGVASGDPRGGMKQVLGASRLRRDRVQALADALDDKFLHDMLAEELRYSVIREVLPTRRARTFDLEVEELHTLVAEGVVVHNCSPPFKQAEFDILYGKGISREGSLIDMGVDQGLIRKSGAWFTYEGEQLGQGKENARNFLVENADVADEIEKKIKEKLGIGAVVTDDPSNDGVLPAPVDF

[4] = molecular target: DNA dC->dU-editing enzyme APOBEC-3A (Homo sapiens, UniProt P31941); assay: A3A deaminase inhibition for selectivity – biochemical, dose response (AID 504722); format: functional
[5] = molecular target: T3, Replicative DNA helicase DnaB (Mycobacterium tuberculosis, UniProt P9WMR3); assay: DnaB intein splicing inhibitors, dose response, biochemical, cell-free fluorescence (AID 449749); format: functional
T3 sequence (P9WMR3 whole entry): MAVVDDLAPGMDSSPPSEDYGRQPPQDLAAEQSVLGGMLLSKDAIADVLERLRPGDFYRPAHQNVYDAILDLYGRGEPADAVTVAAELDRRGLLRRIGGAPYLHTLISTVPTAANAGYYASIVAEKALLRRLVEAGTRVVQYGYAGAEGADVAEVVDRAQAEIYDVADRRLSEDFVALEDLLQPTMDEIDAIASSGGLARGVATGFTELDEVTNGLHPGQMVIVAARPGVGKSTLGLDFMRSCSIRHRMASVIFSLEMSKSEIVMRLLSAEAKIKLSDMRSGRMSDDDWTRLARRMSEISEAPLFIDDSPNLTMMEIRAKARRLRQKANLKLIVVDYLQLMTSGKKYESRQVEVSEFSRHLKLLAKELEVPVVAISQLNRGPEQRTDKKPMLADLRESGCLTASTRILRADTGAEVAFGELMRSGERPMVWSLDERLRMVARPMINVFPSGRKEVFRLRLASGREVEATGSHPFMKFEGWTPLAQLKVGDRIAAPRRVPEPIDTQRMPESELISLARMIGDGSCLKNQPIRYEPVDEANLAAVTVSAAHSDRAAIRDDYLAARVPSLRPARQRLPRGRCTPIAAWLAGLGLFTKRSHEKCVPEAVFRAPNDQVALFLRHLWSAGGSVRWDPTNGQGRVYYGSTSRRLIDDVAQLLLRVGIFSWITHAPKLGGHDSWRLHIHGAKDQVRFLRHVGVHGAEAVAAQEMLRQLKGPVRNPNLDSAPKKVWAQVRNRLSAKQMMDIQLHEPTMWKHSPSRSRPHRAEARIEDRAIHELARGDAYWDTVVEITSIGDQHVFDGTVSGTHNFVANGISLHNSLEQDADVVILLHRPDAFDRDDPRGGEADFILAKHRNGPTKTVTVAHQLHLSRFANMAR

[6] = molecular target: DNA dC->dU-editing enzyme APOBEC-3G (Homo sapiens, UniProt Q9HC16); assay: Dose Response confirmation of small molecule APOBEC3G DNA Deaminase Inhibitors via a fluorescence-based single-stranded DNA deaminase assay. [Related pubchem assays (depositor defined):AID493012, AID493028]; format: functional
[7] = blockers of CRF-binding protein–CRF-R2 complex – cell-based, uHTS hits, 384-well, dose response (AID 651639); format: functional, Homo sapiens; settings: read-out: IC50_Mean
[8] = molecular target: T4, Corticotropin-releasing factor receptor 2/Corticotropin-releasing factor-binding protein (Homo sapiens, UniProt P24387+Q13324); assay: Dose Response confirmation of uHTS hits for small molecule antagonists of the CRF-binding protein and CRF-R2 receptor complex.; format: functional; settings: read-out: IC50_Mean
T4 sequence (Q13324 whole entry): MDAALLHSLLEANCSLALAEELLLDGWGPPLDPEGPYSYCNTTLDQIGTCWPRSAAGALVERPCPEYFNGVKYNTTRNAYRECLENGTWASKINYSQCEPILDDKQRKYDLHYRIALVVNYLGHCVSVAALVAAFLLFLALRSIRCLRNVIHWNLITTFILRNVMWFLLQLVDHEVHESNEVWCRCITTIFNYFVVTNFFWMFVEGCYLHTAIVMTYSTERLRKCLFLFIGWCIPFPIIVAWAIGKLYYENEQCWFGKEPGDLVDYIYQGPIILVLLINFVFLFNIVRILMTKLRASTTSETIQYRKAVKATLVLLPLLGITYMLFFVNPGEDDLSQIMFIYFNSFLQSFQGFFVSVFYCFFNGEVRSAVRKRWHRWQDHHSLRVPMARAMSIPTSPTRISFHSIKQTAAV
T4 sequence (P24387 whole entry): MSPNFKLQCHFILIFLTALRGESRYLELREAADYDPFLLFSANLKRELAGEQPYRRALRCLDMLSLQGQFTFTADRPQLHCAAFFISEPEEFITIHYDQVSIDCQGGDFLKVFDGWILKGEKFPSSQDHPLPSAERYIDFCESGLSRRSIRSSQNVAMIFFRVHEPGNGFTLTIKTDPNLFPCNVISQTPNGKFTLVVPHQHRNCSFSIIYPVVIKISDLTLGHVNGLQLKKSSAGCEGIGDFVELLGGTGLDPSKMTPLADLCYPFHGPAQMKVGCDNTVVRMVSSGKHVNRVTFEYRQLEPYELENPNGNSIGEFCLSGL

[9] = molecular target: T4, Corticotropin-releasing factor receptor 2/Corticotropin-releasing factor-binding protein; assay: activators of CRF receptor 2 with binding protein – uHTS hits, confirmation (AID 602473); format: functional; settings: read-out: EC50_Mean
[10] = molecular target: T5, Rac GTPase-activating protein 1 (Homo sapiens, UniProt Q9H0H5); assay: blockers of MgcRacGAP-driven Rac1 GTP hydrolysis – biochemical, ADP Hunter fluorescence, primary and confirmatory, confirmation (AID 624330); format: functional
T5 sequence (Q9H0H5 whole entry): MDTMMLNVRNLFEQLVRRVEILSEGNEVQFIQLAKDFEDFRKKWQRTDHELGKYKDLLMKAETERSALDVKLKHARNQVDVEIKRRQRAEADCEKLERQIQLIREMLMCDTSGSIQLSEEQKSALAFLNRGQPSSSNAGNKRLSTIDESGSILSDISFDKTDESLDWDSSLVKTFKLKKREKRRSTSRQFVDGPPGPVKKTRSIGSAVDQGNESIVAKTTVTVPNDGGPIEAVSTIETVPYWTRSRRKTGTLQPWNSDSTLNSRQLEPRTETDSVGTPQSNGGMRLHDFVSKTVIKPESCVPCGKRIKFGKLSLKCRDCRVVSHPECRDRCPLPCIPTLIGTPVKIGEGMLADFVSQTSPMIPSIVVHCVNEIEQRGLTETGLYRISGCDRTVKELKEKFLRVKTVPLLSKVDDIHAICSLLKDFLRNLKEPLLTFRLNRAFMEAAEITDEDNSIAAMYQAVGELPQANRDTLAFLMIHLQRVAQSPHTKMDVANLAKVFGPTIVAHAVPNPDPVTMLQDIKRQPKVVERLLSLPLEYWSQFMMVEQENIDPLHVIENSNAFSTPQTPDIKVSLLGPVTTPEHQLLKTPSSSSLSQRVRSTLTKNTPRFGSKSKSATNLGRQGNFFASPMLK

[11] = molecular target: SUMO-activating enzyme (Homo sapiens, UniProt Q9UBT2); assay: blockers of SAE1/SAE2–UBC9 SUMO transfer – biochemical, HTRF, uHTS, primary screen (AID 2006); format: protein-complex assay
[12] = molecular target: T6, Mannose-6-phosphate isomerase (Homo sapiens, UniProt P34949); assay: MPI inhibition at elevated mannose 6-phosphate – biochemical, fluorescence intensity, high mannose 6-phosphate, primary screen (AID 1220)
T6 sequence (P34949 whole entry): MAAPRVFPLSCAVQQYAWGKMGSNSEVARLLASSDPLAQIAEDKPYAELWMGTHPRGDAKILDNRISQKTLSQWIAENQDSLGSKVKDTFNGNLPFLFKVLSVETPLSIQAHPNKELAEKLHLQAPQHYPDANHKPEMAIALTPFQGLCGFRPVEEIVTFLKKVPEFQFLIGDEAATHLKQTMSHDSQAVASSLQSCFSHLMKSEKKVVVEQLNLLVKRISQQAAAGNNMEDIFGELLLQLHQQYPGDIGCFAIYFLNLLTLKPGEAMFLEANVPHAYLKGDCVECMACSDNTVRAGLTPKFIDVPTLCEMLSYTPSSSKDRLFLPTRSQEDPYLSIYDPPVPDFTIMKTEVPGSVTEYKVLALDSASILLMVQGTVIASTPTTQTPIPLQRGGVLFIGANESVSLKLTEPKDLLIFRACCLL

DNA dC->dU-editing enzyme APOBEC-3G, sequence (Q9HC16 whole entry): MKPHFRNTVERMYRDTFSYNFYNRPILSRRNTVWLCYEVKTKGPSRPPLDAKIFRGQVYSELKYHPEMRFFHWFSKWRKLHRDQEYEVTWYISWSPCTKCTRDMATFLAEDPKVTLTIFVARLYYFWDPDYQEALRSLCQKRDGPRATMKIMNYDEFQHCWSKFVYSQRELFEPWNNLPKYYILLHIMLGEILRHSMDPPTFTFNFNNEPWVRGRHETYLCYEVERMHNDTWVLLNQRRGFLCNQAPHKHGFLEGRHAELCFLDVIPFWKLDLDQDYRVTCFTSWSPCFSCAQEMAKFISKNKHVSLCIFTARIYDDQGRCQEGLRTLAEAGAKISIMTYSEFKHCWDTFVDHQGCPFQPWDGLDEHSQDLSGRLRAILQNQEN
DNA dC->dU-editing enzyme APOBEC-3A, sequence (P31941 whole entry): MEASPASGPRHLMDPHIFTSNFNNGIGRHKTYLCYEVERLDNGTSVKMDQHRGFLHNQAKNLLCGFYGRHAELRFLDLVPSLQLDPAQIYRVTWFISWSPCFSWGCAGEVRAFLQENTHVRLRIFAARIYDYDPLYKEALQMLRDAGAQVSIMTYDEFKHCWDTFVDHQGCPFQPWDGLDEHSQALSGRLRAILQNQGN
SUMO-activating enzyme, sequence (Q9UBE0 whole entry): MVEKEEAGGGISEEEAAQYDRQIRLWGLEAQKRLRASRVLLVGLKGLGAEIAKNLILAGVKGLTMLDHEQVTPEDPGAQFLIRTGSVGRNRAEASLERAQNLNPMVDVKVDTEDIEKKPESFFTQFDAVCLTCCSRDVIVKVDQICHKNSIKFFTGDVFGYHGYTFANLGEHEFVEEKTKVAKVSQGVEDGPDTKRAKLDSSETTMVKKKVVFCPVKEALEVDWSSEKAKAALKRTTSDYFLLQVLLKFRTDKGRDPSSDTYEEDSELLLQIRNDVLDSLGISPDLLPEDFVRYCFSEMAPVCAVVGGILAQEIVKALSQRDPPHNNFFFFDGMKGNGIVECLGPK
SUMO-activating enzyme, sequence (Q9UBT2 whole entry): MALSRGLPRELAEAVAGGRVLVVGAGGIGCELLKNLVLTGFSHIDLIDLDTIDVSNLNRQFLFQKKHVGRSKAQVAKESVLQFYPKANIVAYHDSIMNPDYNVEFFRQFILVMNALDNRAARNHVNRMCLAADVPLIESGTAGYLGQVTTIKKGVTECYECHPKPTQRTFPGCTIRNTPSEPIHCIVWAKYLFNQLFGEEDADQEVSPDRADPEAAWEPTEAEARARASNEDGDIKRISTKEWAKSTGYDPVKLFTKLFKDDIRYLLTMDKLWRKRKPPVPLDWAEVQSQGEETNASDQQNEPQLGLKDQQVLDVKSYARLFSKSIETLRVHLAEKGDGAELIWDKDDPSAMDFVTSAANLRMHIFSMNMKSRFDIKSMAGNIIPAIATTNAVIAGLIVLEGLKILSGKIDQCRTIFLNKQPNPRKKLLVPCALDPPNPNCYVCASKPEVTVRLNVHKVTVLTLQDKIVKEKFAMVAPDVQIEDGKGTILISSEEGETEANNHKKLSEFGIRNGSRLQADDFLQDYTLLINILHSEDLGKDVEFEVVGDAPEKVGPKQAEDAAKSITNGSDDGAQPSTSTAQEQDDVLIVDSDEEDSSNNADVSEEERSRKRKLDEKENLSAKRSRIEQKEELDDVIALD

In the case of `CCOC(=O)C1(Cc2ccccc2)CCN(CC2CC=CCC2)CC1` (stereo not drawn), the EC50 [1] is reported as 13.3 µM (active).

For `Cc1ccccc1C(=O)NNC(=S)NC(=O)COc1ccccc1`, the EC50 [2] was 5.31 µM (active), the EC50 [3] was 17.7 µM (active) and the IC50 [4] was > 100 µM (inactive). For the same molecule, the AC50 [5] was 29 µM (active) and the IC50 [6] was 12.7 µM (active).

For `COC(=O)CSc1nn(-c2ccc(F)cc2)c(=S)s1`, the EC50 [1] was 6.68 µM (active), the IC50 [7] was > 20 µM (inactive) and the IC50 [8] was 4.86 µM (active). For the same molecule, the EC50 [9] was > 53 µM (inactive).

In the case of `COc1ccc2c(c1)-c1nc(/N=C/c3cccc(OC)c3O)sc1CC2`, the IC50 [10] is reported as 23.7 µM (active), the IC50 [11] is reported as > 100 µM (inactive) and the IC50 [12] is reported as > 50 µM (not active).
